The record followed here is ChEMBL document CHEMBL1142311, “Discovery and SAR of 1,3,4-thiadiazole derivatives as potent Abl tyrosine kinase inhibitors and cytodifferentiating agents” (Bioorg Med Chem Lett, 2008).

Calls of active or inactive are those of the source. The rule behind the calls is not given here.

In assay [1] the test system is HL-60. In words: Effect on PMA-stimulated human HL60 cells assessed as recovery of ROS metabolism. It is filed as functional, cell-based.
The species named for assay [2] is Mus musculus. In words: Inhibition of p210Bcr-Abl phosphorylation in gleevec-resistant mouse 32D cells at 10 uM.
For assay [3], the species on record is Mus musculus. Put plainly: Inhibition of p210Bcr-Abl phosphorylation in gleevec-sensitive mouse 32D cells at 10 uM.
A short description of assay [4]: Reduction of clonogenic activity in Bcr-Abl expressing mouse 32D clone cells. Conditions: read-out: LD50.
Assay [5] concerns HL-60. Put plainly: Effect on zymosan-stimulated human HL60 cells assessed as recovery of ROS metabolism. The format is functional, cell-based.
The subject of assay [6] is HL-60. Put plainly: Growth inhibition of human HL60 cells upto 100 uM after 96 hrs. It is filed as functional, cell-based.
Assay [7] concerns HL-60. Put plainly: Growth inhibition of human HL60 cells after 96 hrs. It is filed as functional, cell-based.
Assay [8] addresses Proto-oncogene tyrosine-protein kinase Src (Homo sapiens) (UniProt P12931). In words: Inhibition of recombinant human c-Src.

Chain of Proto-oncogene tyrosine-protein kinase Src (Homo sapiens) (P12931 2-536 limits assumed): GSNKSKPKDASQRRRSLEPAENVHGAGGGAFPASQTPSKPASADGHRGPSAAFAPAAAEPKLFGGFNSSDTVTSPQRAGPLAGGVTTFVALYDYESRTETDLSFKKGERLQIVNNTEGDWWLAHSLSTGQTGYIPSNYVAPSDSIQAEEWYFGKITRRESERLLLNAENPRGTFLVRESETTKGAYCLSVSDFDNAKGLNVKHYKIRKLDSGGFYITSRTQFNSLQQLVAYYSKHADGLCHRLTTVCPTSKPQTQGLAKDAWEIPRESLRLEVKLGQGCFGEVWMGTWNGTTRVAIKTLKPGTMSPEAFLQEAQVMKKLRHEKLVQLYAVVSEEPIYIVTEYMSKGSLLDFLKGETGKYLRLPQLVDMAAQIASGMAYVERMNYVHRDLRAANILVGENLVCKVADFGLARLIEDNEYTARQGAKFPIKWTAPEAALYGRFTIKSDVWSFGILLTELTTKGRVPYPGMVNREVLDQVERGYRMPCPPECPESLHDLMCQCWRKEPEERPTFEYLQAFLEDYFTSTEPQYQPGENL

Take `O=C(Nc1nnc(SCc2ccc(F)cc2)s1)c1ccc(F)cc1`: the outcome in the assay with HL-60 [1], in the assay filed under Mus musculus [2], in the assay listed under Mus musculus [3], in the assay with HL-60 [5] and with HL-60 [7] was Active. Moreover, the CC50 in assay [4] was 2200 nM. For the same molecule, in the assay on HL-60 [6], the result was inactive.
On to `O=C(Nc1nnc(CCc2ccccc2)s1)c1ccc(I)cc1`, for which, in assay [8], the result was inactive.
